Patent US20120184548A1, “CARBOXYLIC ACID ARYL AMIDES” (priority 2011, published 2012)

Assays:
[1] = target: T1, Human DYRK1B (Homo sapiens, UniProt Q9Y463); experiment: DYRK1B Kinase TR-FRET (IMAP-Tb) Assay; format: biochemical; conditions: TR-FRET; ATP 70 μM; 37° C. for 60 minutes; averages of multiple runs; read-out: Enzyme IC50 DYRK1B
T1 construct: purchased Invitrogen PR8350B (former PV4649)

[2] = target: T2, Human DYRK1A (Homo sapiens, UniProt Q13627); experiment: DYRK1A Kinase TR-FRET (IMAP-Tb) Assay; format: biochemical; conditions: TR-FRET; ATP 70 μM; 37° C. for 60 minutes; averages of multiple runs; read-out: Enzyme IC50 DYRK1A
T2 construct: purchased Invitrogen PV3997

[3] = tested on: SW620 human colon cancer cells; experiment: SW620 Cell Viability Assay (CellTiter-Glo); format: cell-based; conditions: SW-620, 96 h, 4 days incubation, read-out: Cellular EC50 SW620
Protocol: 1. Cell Plate Preparation: SW620 human colon cancer cells (known to express DYRK1B), obtained from ATCC, were seeded into 96-well plates at […] in 50 μL of media. • Harvested the required number of cells (counts & viability determined by Guava Viacount). • Centrifuge cells to pellet and removed supernant. • Resuspended in growth media (50 μL/well) & pipetted thoroughly to break up clumps. • Setup for ˜100 wells/plate, therefore, VT=5 mL/plate @ 1.2×10^5 cells/mL. 1A. Some cells (S-) were allowed to attach for 24 hrs, serum starved for 48 hrs, and then followed with treatments of test compound.
Test Compound solution was prepared in regular corresponding media supplemented with serum
2. Test Compound Preparation: Test compounds were solubilized in either DMSO or media and prepared at various stock concentrations. • All compounds were incubated at 37° C. for 30 minutes and vortexed. • (5 mM stocks of test compound were prepared for non-soluble drugs)
3. Test Compound Plate Preparation:
• The 10 mM test compound stock was diluted to a concentration of 100× the final Cmax concentration. • Then the test compound stock is diluted 50-fold in media and/or second test compound for a final Cmax concentration in the test compound plate. • The Cmax in the test compound plate (2% DMSO) is 2-fold higher than the final Cmax in the cell plate (60 uL titrations were 1:3). 4. Viability Assay: This assay was performed as follows: • Transfer 50 μL of test compound solution per well from the test compound plate onto the cell plate prepared in Step #1. • Mix the plate with treated cells by pipetting up and down three times with 200 μL multi-channel pipet. • Incubate the cells in 5% CO2 incubator @ 37° C. for 4 days. • Run the CellTiter-Glo™ Luminescent Cell Viability Assay. The results of this assay, given as EC50 values, indicate the concentration of test compound that inhibits tumor cell proliferation by 50%.

T1 sequence (Q9Y463 whole entry): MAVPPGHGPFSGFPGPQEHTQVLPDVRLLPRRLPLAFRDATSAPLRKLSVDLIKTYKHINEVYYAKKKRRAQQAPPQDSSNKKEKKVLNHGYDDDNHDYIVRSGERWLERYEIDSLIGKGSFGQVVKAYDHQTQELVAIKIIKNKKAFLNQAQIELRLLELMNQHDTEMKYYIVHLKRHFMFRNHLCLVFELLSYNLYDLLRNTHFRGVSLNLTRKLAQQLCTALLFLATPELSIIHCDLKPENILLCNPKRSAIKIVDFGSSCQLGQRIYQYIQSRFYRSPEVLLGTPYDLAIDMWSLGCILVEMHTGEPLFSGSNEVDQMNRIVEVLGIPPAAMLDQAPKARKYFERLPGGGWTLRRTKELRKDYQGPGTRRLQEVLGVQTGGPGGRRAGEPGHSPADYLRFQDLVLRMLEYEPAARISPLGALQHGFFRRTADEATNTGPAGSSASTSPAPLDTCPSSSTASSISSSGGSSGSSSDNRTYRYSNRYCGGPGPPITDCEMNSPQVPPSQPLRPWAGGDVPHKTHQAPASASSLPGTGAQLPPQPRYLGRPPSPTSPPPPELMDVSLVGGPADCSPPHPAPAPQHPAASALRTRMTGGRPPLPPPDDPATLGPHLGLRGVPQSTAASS

`COCCOc1cc2cc(C(=O)Nc3cc(C(=O)OC)ccc3Cl)c(=O)[nH]c2cc1OC` [Example 53, Methyl 4-chloro-3-(7-methoxy-6-(2-methoxyethoxy)-2-oxo-1,2-dihydroquinoline-3-carboxamido)benzoate] was tested, and the IC50 [1] was 115 nM, the IC50 [2] was 245 nM and the EC50 [3] was greater than 10000 nM.
